Test [1] concerns the target T1, CDK12/CycK (Homo sapiens, UniProt Q9NYV4).
T1 construct: His-CDK12 (aa Q696-S1082); made in house; host or cells: Hi-5 insect cells (baculovirus co-infection with CAK1)
Briefly: CDK12/CycK high ATP kinase assay (TR-FRET, 2 mM ATP). In kind it is biochemical. Conditions: read-out: CDK12/CyclinK, 2 mM ATP (high ATP), IC50-[mol/l] (median). From the text:
In the context of the present invention, the term “IC50 CDK12 hATP” refers to the IC50 values obtained according to the assay described in this section (2.2) herein below, i.e. the IC50 values for the inhibition of CDK12 at high ATP.
CDK12/CycK-inhibitory activity of compounds of the present invention at 2 millimol/L adenosine-tri-phosphate (ATP) was quantified employing the TR-FRET (TR-FRET=Time Resolved Fluorescence Energy Transfer) based CDK12/CycK activity inhibition assay as described in the following paragraphs.
A complex of human recombinant CDK12 and human recombinant CycK (both N-terminally His-tagged, expression and purification as described above) was used as enzyme. As substrate for the kinase reaction biotinylated peptide biotin-Ahx-KFELLPTPPLSPSRRSGL (C-terminus in amid form) was used which can be purchased e.g. form the company Biosyntan (Berlin-Buch, Germany).
For the assay 50 nanoL of a 100 fold concentrated solution of the test compound in DMSO was pipetted into either a black low volume 384 well microtiter plate or a black 1536 well microtiter plate (both Greiner Bio-One, Frickenhausen, Germany), 2 microL of a solution of CDK12/CycK in aqueous assay buffer [25 millimol/L HEPES pH 7.5, 20 millimol/L MgCl2, 5 millimol/L ß-glycerophosphate, 2 millimol/L EGTA, 1.0 millimol/L dithiothreitol, 0.01% (v/v) Nonidet-P40 (Sigma), 0.01% (w/v) bovine serum albumin] were added and the mixture was incubated for 15 min at 22° C. to allow pre-binding of the test compounds to the enzyme before the start of the kinase reaction. Then the kinase reaction was started by the addition of 3 microL of a solution ATP (3.33 millimol/L=> final conc. in the 5 microL assay volume is 2 millimol/L) and substrate (1.67 micromol/L=> final conc. in the 5 microL assay volume is 1 micromol/L) in assay buffer and the resulting mixture was incubated for a reaction time of 60 min at 22° C. The concentration of CDK12/CycK was adjusted depending of the activity of the enzyme lot and was chosen appropriate to have the assay in the linear range, typical concentrations were about 0.75 nanomol/L. The reaction was stopped by the addition of 3 microL of a solution of TR-FRET detection reagents (125 nanomol/L streptavidine-XL665 [Cisbio Bioassays, Codolet, France] and 0.67 nanomol/L anti-Phospho-c-Myc (Ser 62) (E1J4K)-antibody from Cell Signalling [#13748] and 2 nanomol/L LANCE EU-W1024 labeled anti-rabbit IgG antibody [Perkin-Elmer, product no. 0083]) in an aqueous EDTA-solution (133 millimol/L EDTA, 0.27% (w/v) bovine serum albumin in 66.7 millimol/L HEPES pH 7.5).
The resulting mixture was incubated 1 h at 22° C. to allow the formation of complex between the phosphorylated biotinylated peptide and the detection reagents. Subsequently the amount of phosphorylated substrate was evaluated by measurement of the resonance energy transfer from the Eu-chelate to the streptavidine-XL. Therefore, the fluorescence emissions at 620 nm and 665 nm after excitation at 350 nm was measured in a TR-FRET reader, e.g. a Pherastar FS (BMG Labtechnologies, Offenburg, Germany) or a Viewlux (Perkin-Elmer). The ratio of the emissions at 665 nm and at […] was taken as the measure for the amount of phosphorylated substrate. The data were normalised (enzyme reaction without inhibitor=0% inhibition, all other assay components but no enzyme=100% inhibition).
In general terms: TR-FRET usually uses a lanthanide donor and a delayed reading to cut background.

Test [2] concerns CAL-120 human breast adenocarcinoma cells. Briefly: Proliferation assay CAL-120 (crystal violet). In kind it is cell-based. Conditions: 96 h, CAL-120 cells, 4 days, read-out: Prolif-CAL-120_ IC50-[mol/l] (median). The procedure: Human tumour cells were originally obtained from the American Type Culture Collection (ATCC), or from the Deutsche Sammlung von Mikroorganismen und Zellkulturen (DSMZ, German Collection of Microorganisms and Cell Cultures). Cultivated tumour cells (CAL-120, human breast adenocarcinoma cells, DSMZ ACC-459; MDA-MB-231, human breast cancer cells, ATCC HTB-26) were plated at a density of 4,000 cells/well in a 96-well multititer plate in 200 microL of their respective growth medium supplemented 10% fetal calf serum. After 24 hours, the cells of one plate (zero-point plate) were stained with crystal violet (see below), while the medium of the other plates was supplemented with the test substances in various concentrations (0 micromol/L, as well as in the range of 0.01-10 micromol/L; the final concentration of the solvent dimethyl sulfoxide was adjusted to 0.1%) using a Tecan HP D300 Digital Dispenser. The cells were incubated for 4 days in the presence of test substances. Cell proliferation was determined by staining the cells with crystal violet: the cells were fixed by adding 20 microL/measuring point of an 11% glutaric aldehyde solution for 15 minutes at room temperature. After three washing cycles of the fixed cells with water, the plates were dried at room temperature. The cells were stained by adding 100 microL/measuring point of a 0.1% crystal violet solution (pH 3.0). After three washing cycles of the stained cells with water, the plates were dried at room temperature. The dye was dissolved by adding 100 microL/measuring point of a 10% acetic acid solution. The extinction was determined by photometry at a wavelength of 595 nm. The change of cell number, in percent, was calculated by normalization of the measured values to the extinction values of the zero-point plate (=0%) and the extinction of the untreated (0 μM) cells (=100%). The IC50 values (inhibitory concentration at 50% of maximal effect) were determined by means of a 4 parameter fit.

T1 sequence (Q9NYV4 with tags, fused parts or gaps): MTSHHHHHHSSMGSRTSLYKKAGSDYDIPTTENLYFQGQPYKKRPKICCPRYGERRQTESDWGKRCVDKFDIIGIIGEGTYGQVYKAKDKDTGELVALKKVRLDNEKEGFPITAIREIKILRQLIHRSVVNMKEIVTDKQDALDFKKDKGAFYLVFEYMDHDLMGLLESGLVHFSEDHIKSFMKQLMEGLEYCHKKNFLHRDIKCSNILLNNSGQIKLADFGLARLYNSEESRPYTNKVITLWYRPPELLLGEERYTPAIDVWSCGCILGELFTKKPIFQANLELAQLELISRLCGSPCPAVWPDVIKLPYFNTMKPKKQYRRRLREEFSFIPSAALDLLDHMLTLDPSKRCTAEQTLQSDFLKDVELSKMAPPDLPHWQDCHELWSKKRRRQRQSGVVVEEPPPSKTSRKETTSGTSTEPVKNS
T1 sequence (O75909 with tags, fused parts or gaps partner limits assumed): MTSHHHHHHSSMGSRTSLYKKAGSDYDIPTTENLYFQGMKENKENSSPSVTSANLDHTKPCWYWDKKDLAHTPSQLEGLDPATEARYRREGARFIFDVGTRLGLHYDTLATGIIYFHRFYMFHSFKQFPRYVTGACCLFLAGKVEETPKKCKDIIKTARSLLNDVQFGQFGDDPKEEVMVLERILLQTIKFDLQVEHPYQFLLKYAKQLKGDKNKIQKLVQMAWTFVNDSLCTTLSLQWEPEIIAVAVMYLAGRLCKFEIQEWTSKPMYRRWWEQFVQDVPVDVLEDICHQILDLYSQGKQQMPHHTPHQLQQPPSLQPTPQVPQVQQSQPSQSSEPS

Consider `Fc1ccc2[nH]c(CNc3nc(N4CCOCC4)nn4c(Br)cnc34)nc2c1F` [Example 7, 7-bromo-N-[(4,5-difluoro-1H-benzimidazol-2-yl)methyl]-2-(morpholin-4-yl)imidazo[2,1-f][1,2,4]triazin-4-amine], for which the IC50 in test [1] stood at 1260 nM; in test [2] it was 8.44 nM. Turning to `N#Cc1cnc2c(NCc3nc4ccccc4[nH]3)nc(N3CCOCC3)nn12` [Example 2, 4-{[(1H-benzimidazol-2-yl)methyl]amino}-2-(morpholin-4-yl)imidazo[2,1-f][1,2,4]triazine-7-carbonitrile], the IC50 in test [1] came out at 6980 nM; in test [2], 103 nM. The corresponding values for `CN1CCN(c2nc(NCc3nc4ccccc4[nH]3)c3ncc(C(F)(F)F)n3n2)CC1` [Example 25, N-[(1H-benzimidazol-2-yl)methyl]-2-(4-methylpiperazin-1-yl)-7-(trifluoromethyl)imidazo[2,1-f][1,2,4]triazin-4-amine] are 10800 nM and 12.3 nM. The corresponding values for `COc1cccc2[nH]c(CNc3nc(N4C[C@@H](C)N[C@@H](C)C4)nn4c(Br)cnc34)nc12` [Example 14, 7-bromo-2-[rel-(3R,5S)-3,5-dimethylpiperazin-1-yl]-N-[(4-methoxy-1H-benzimidazol-2-yl)methyl]imidazo[2,1-f][1,2,4]triazin-4-amine] are 2010 nM and 2.33 nM.

For `Fc1cccc2[nH]c(CNc3nc(N4CCNCC4)nn4c(Br)cnc34)nc12` [Example 22, 7-bromo-N-[(4-fluoro-1H-benzimidazol-2-yl)methyl]-2-(piperazin-1-yl)imidazo[2,1-f][1,2,4]triazin-4-amine], the IC50 in test [1] came out at 2560 nM; in test [2], 3.06 nM. Turning to `Fc1ccc2[nH]c(CNc3nc(N4CCOCC4)nn4c(C(F)(F)F)cnc34)nc2c1F` [Example 27, N-[(4,5-difluoro-1H-benzimidazol-2-yl)methyl]-2-(morpholin-4-yl)-7-(trifluoromethyl)imidazo[2,1-f][1,2,4]triazin-4-amine], the IC50 came to 10.7 nM in test [1] and 2.01 nM in test [2].

For `COc1cccc2[nH]c(CNc3nc(N4CCN(C)CC4)nn4c(Br)cnc34)nc12.O=CO` [Example 16, 7-bromo-N-[(4-methoxy-1H-benzimidazol-2-yl)methyl]-2-(4-methylpiperazin-1-yl)imidazo[2,1-f][1,2,4]triazin-4-amine Formate (1/1)], the IC50 in test [1] was determined as 6290 nM; in test [2], 5.89 nM. In the case of `Fc1cccc2[nH]c(CNc3nc(N4CCOCC4)nn4c(Br)cnc34)nc12` [Example 12, 7-bromo-N-[(4-fluoro-1H-benzimidazol-2-yl)methyl]-2-(morpholin-4-yl)imidazo[2,1-f][1,2,4]triazin-4-amine], the IC50 in test [1] is 4710 nM; in test [2], 49.6 nM.

Take `CN1CCN(c2nc(NCc3nc4ccccc4[nH]3)c3ncc(Br)n3n2)CC1` [Example 6, N-[(1H-benzimidazol-2-yl)methyl]-7-bromo-2-(4-methylpiperazin-1-yl)imidazo[2,1-f][1,2,4]triazin-4-amine]: the values for the IC50 in test [1] and in test [2] were above 18600 nM and 61.4 nM, respectively. On to `C[C@@H]1CN(c2nc(NCc3nc4cc(F)ccc4[nH]3)c3ncc(Br)n3n2)C[C@H](C)N1` [Example 19, 7-bromo-2-[rel-(3R,5S)-3,5-dimethylpiperazin-1-yl]-N-[(5-fluoro-1H-benzimidazol-2-yl)methyl]imidazo[2,1-f][1,2,4]triazin-4-amine], for which the IC50 in test [1] is 6430 nM; in test [2] it was 1.14 nM. For the compound `OC[C@@H]1CCCCN1c1nc(NCc2nc3ccccc3[nH]2)c2ncc(Br)n2n1` [Example 17, [(2S)-1-(4-{[(1H-benzimidazol-2-yl)methyl]amino}-7-bromoimidazo[2,1-f][1,2,4]triazin-2-yl)piperidin-2-yl]methanol], the IC50 in test [1] is 116 nM; in test [2] it was 19.3 nM.

Regarding `Brc1cnc2c(NCc3nc4ccccc4[nH]3)nc(N3CCNCC3)nn12` [Example 8, N-[(1H-benzimidazol-2-yl)methyl]-7-bromo-2-(piperazin-1-yl)imidazo[2,1-f][1,2,4]triazin-4-amine], the IC50 in test [1] was 5650 nM; in test [2], 3.25 nM. `C[C@@H]1CN(c2nc(NCc3nc4c(F)c(F)ccc4[nH]3)c3ncc(Br)n3n2)C[C@H](C)N1` [Example 11, 7-bromo-N-[(4,5-difluoro-1H-benzimidazol-2-yl)methyl]-2-[rel-(3R,5S)-3,5-dimethylpiperazin-1-yl]imidazo[2,1-f][1,2,4]triazin-4-amine]: the figures for the IC50 in test [1] and in test [2] were 579 nM and 0.381 nM, respectively. For `Fc1ccc2[nH]c(CNc3nc(N4CCOCC4)nn4c(Br)cnc34)nc2c1` [Example 20, 7-bromo-N-[(5-fluoro-1H-benzimidazol-2-yl)methyl]-2-(morpholin-4-yl)imidazo[2,1-f][1,2,4]triazin-4-amine], the figures for the IC50 in test [1] and in test [2] were 3460 nM and 10.7 nM, respectively. With `C[C@@H]1CN(c2nc(NCc3nc4c(F)cccc4[nH]3)c3ncc(Br)n3n2)C[C@H](C)N1` [Example 18, 7-bromo-2-[rel-(3R,5S)-3,5-dimethylpiperazin-1-yl]-N-[(4-fluoro-1H-benzimidazol-2-yl)methyl]imidazo[2,1-f][1,2,4]triazin-4-amine], the values for the IC50 in test [1] and in test [2] were 1800 nM and 2.08 nM, respectively. The corresponding values for `C[C@@H]1CN(c2nc(NCc3nc4c(F)c(F)ccc4[nH]3)c3ncc(Br)n3n2)C[C@H](C)O1` [Example 5, 7-bromo-N-[(4,5-difluoro-1H-benzimidazol-2-yl)methyl]-2-[rel-(2R,6S)-2,6-dimethylmorpholin-4-yl]imidazo[2,1-f][1,2,4]triazin-4-amine] are 137 nM and 7.97 nM.

For `Fc1cccc(-c2cnc3c(NCc4nc5ccccc5[nH]4)nc(N4CCOCC4)nn23)c1` [Example 3, N-[(1H-benzimidazol-2-yl)methyl]-7-(3-fluorophenyl)-2-(morpholin-4-yl)imidazo[2,1-f][1,2,4]triazin-4-amine], the IC50 in test [1] was above 20000 nM. Consider `Brc1cnc2c(NCc3nc4ccccc4[nH]3)nc(N3CCOCC3)nn12` [Example 1, N-[(1H-benzimidazol-2-yl)methyl]-7-bromo-2-(morpholin-4-yl)imidazo[2,1-f][1,2,4]triazin-4-amine], for which the IC50 in test [1] was 5110 nM.
